Measurements taken from patent US7226783B1, “Vanillin production” (David Michael & Co., Inc., priority 1997, dated 2007).

Columns and labels:
Vanilla embryo culture = assay: Feeding vanilla embryo culture with vanillin precursors, HPLC analysis of metabolites; assay type: cell-based, Vanilla planifolia
Description: We derived a scheme for the vanillin biosynthetic pathway by analysis of metabolites in cultured embryos and by experiments with feeding of precursors and intermediates. This scheme is shown in FIG. 1 and the experiments are described below.
Embryo cultures of Vanilla planifolia were established as described in Example 1. The procedures used to extract phenolics from the cultured embryo cells and to analyze the extracts by high pressure liquid chromatography (HPLC) were as described generally by Havkin-Frenkel et al., Plant Cell, Tissue and Organ Culture 45: 133–136 (1996).
In the extraction procedure, 3 ml of 0.05 M sodium acetate buffer, pH 5.5, was added to about 1 gram of fresh culture. Samples were placed in boiling water for three minutes, then chilled. The cells were next homogenized in a Polytron blender for 1 minute at medium speed. A β-glucosidase solution was added to the homogenized cells to give a final concentration of 0.2%. Each sample was then incubated at 37° C. for 5 hr. Next, 17 ml of 95% ethanol was added, after which incubation at 37° C. was continued for an additional 24 hrs. The extract was then filtered and the ethanol evaporated. The filtrate was extracted twice using ethyl acetate, then extracted twice with ethyl acetate acidified to pH 3 with HCl. The extracts were combined and the ethyl acetate evaporated. The residue was dissolved in 1 ml of acidified methanol and filtered with a 0.45 μm syringe filter for HPLC analysis.
Extractions of metabolites from culture medium was similar to the cell extraction protocol. Five ml of spent medium was incubated in a β-glucosidase solution at 37° C. for 24 hrs. The medium was then extracted with ethyl acetate and the organic portions combined and evaporated, as for the cell extracts.
Metabolite levels were measured with a Hewlett Packard 1090L or a Waters HPLC with a UV detector at 280 nm. The Waters HPLC was also equipped with a diode array detector to confirm the identities of the various intermediates, and the identities of the various intermediates were further confirmed by mass spectrometry. The column was a Supelco C-18 DB column of dimensions 250 mm×4.6 mm and a particle size of 5 μm. The mobile phase contained methanol and water, each of which was acidified with 1.25% acetic acid. The flow rate was 1 ml/min, with a solvent gradient as follows: […]
Results of selected experiments in which precursors or elicitors were added to vanilla cultures are set forth below. These experiments were performed in accordance with the procedures set forth in Examples 1–4.

[1] = tested on: alcohol dehydrogenase from Vanilla planifolia embryo culture (vanillyl alcohol dehydrogenase, VAD); assay: Substrate specificity of vanillyl alcohol dehydrogenase (VAD); assay type: biochemical
Method: We have purified and characterized the activity of VAD that catalyze the reduction of vanillin to vanillyl alcohol. The enzyme was identified as an NADH or NADPH-dependent alcohol dehydrogenase. The purification protocol was as set forth below.
Crude enzyme extract: Tissue was homogenized in 0.05 M actetate-Na buffer pH 4.0 (in proportion, 1 g of the tissue and 5 ml of the buffer) in an ice bath, using Polytrone homogenizer, at 20,000 revolutions of the blade per min. The homogenate was centrifuged at 13000 g for 15 min at 4° C. and the supernatant served as the crude enzyme source.
Ammonium sulfate fractionation and molecular sieving: Crude enzyme extract (100 ml) was supplied with ammonium sulfate in an ice bath up to 60% of saturation (44.4 g of Ammonium sulphate per 100 ml). The precipitate was centrifuged and discarded. The supernatant was supplied with ammonium sulfate up to 90% of saturation (total 64.6 g per 100 ml of crude extract). The precipitate was collected (10 min centrifugation at 10,000 g), dissolved in 7 ml of extraction buffer and subjected to molecular sieving at Sephacryl S-300 High Load Column (LKB Pharmacia) 2.6×60 cm, in 0.1 M pH 4.0 acetate-Na buffer. The flow rate was adjusted to 1 ml/min and 5 ml fractions were collected. The protein elution profile was monitored at 280 nm. Five fractions (of a total of 50) containing dehydrogenase activity (130–155 ml of the column eluate) were collected.
The column was developed with 0.5 M Tris/HCL buffer pH 7.4 in 0.0–1.0 M NaCl gradient (total gradient volume—70 ml) and 2.5 ml fractions were collected. Vanillyl alcohol dehydrogenase was released from the column between 0.3–0.4 M NaCl. Fractions containing VAD activity were dialysed overnight against 0.05 M caetate-Na buffer pH 4.0 and concentrated up to 50 times using Minicon concentrating filters (Amicon). […]

[2] = tested on: V. planifolia tissue culture; assay: Bio-conversion of 3,4-dihydroxybenzaldehyde to vanillin and vanillyl alcohol in tissue culture; assay type: cell-based, Vanilla planifolia; settings: addition of 1–5 mM pro-ald
Method: The following procedure was used for the bio-conversion of 3,4-dihydroxybenzaldehyde (“proaldehyde”) to vanillin and vanillyl alcohol in V. planifolia tissue culture. The medium used for cultures was G-medium as described above. Pro-ald solutions were prepared in G-medium, to final concentrations of 0.01 to 5 mM.
Cultures used for the bio-conversion were (1) clusters, (2) embryo culture, and (3) tissue homogenates of the above cultures. Cultures were of varying ages ranging from 0 to 1 month old. The cultures were allowed to remain under normal culture conditions for 0 to 15 days. As controls, untreated cultures were extracted and analyzed as described in Example 2.
Proaldehyde at different concentrations was added to the medium, either alone or in combination with the following treatments:
Bioreactor-grown cultures were used for the bio-conversions. Different kinds of impeller designs were used to increase or decrease shear stress on the cells prior to the addition of pro-ald.

[3] = tested on: V. planifolia embryo culture; assay: Uptake of exogenously added vanillin and transformation to vanillyl alcohol in embryo culture; assay type: cell-based, Vanilla planifolia
Description: FIG. 3. Graph showing uptake of exogenously added vanillin and its transformation to vanillyl alcohol by vanillyl alcohol dehydrogenase in V. planifolia embryo culture. V(T)=vanillin in tissue; V(M)=vanillin in medium; VAL(T)=vanillyl alcohol in tissue; VAL(M)=vanillyl alcohol in medium.
Similarly, vanilla embryo culture that can be elicited by various elicitors to produce vanillin accumulates vanillyl alcohol as a final product. It is important to state at this stage that all the intermediates in the pathway are found mainly as glucosides.

substrate preference of VAD [1]: most preferred substrates | Activity with the compound as substrate, NADH ([1]; cofactor NADH): 1.89 nmoles · gfwt^−1 · min^−1 | Activity with the compound as substrate, NADPH ([1]; cofactor NADPH): 2.11 nmoles · gfwt^−1 · min^−1
SMILES: O=Cc1ccc(O)c(O)c1 [PRO-ALD, 3,4-dihydroxybenzaldehyde]
fate of exogenously fed compound in cultured embryos (Vanilla embryo culture; feeding experiments, Example 2): rapid methylation and conversion to vanillin or vanillyl alcohol | CA (p-coumaric acid) content of culture (Vanilla embryo culture; precursor fed at 1 mM): 285 mg/100 g dry wt. | HBA (p-hydroxybenzyl alcohol) content of culture (Vanilla embryo culture; precursor fed at 1 mM): 8950 mg/100 g dry wt. | PRO-ALD (3,4-dihydroxybenzaldehyde) content of culture (Vanilla embryo culture; precursor fed at 1 mM): 433 mg/100 g dry wt. | VN (vanillin) content of culture (Vanilla embryo culture; precursor fed at 1 mM): 16.7 mg/100 g dry wt. | VN ALC (vanillyl alcohol) content of culture (Vanilla embryo culture; precursor fed at 1 mM): 286.8 mg/100 g dry wt. | increase of production of vanillin/vanillyl alcohol [2]: several hundred fold | fate of compound applied to the growing medium of embryo culture [3]: accumulation of vannilyl alcohol
